Assay results: ChEMBL document CHEMBL5120854, “Discovery of Natural Ursane-type SENP1 Inhibitors and the Platinum Resistance Reversal Activity Against Human Ovarian Cancer Cells: A Structure-Activity Relationship Study” (J Nat Prod, 2022)
Calls of active or inactive are those of the source. The calls are words filed in the database; no cut-off is given here.

Key:
[1] = test system: SK-OV-3; assay: Reversal of platinum resistance in cisplatin-resistant human SK-OV-3 cells assessed as reduction in cisplatin IC50 after 48 hrs in presence of cisplatin by SRB assay (reference value: 28.23 microM); assay type: functional, cell-based; settings: SK-OV-3, 48 h
[2] = test system: SK-OV-3; assay: Cytotoxicity against human SK-OV-3 cells assessed as reduction in cell viability incubated for 48 hrs by SRB assay; assay type: functional, cell-based; settings: SK-OV-3, 48 h
[3] = molecular target: T1, Sentrin-specific protease 1 (Homo sapiens) (UniProt Q9P0U3); assay: Inhibition of recombinant human SENP1 assessed as reduction in deSUMOylation of RanGAP1-SUMO1 at 5 uM using RanGAP1-SUMO1 as substrate preincubated for 10 mins followed by substrate addition and measured after 30 mins relative to control; settings: time 40.0 min
T1 sequence (whole entry): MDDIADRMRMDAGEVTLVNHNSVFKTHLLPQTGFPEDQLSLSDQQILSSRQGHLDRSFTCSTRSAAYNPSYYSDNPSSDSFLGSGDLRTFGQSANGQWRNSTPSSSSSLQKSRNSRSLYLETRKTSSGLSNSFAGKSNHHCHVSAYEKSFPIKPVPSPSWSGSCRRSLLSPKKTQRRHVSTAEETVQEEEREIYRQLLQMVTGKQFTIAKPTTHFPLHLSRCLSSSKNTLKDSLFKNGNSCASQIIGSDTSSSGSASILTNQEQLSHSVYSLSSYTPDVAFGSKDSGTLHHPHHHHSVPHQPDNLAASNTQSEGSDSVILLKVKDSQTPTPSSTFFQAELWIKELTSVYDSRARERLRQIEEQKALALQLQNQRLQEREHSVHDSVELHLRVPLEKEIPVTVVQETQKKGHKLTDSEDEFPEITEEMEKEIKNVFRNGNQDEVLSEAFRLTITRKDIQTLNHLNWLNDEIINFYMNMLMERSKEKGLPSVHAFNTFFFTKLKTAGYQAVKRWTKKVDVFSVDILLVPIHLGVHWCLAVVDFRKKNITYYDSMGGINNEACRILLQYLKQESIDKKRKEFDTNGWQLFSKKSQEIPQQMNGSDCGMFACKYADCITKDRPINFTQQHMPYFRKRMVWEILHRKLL

[4] = test system: SK-OV-3; assay: Cytotoxicity against human SK-OV-3 cells assessed as reduction in cell viability at 25 uM incubated for 48 hrs by SRB assay; assay type: functional, cell-based
[5] = molecular target: T1, Sentrin-specific protease 1 (Homo sapiens); assay: Inhibition of SENP1 in human SK-OV-3 cells assessed as increase in SUMOlytated JAK2 level at 5 uM after 48 hrs by immunoprecipitation method; assay type: cell-based
[6] = test system: SK-OV-3; assay: Synergistic reversal of platinum resistance in cisplatin-resistant human SK-OV-3 cells assessed as combination index after 48 hrs in presence of cisplatin by SRB assay; assay type: functional
[7] = test system: SK-OV-3; assay: Cytotoxicity against human SK-OV-3 cells assessed as cell viability at 500 uM incubated for 48 hrs by SRB assay; assay type: functional; settings: read-out: Activity
[8] = molecular target: T1, Sentrin-specific protease 1 (Homo sapiens); assay: (§1) Inhibition of recombinant human SENP1 assessed as reduction in deSUMOylation using RanGAP1-SUMO1 as substrate preincubated for 10 mins followed by substrate addition and measured after 30 mins; settings: time 40.0 min, DDE = dose-dependent effect
[9] = molecular target: T2, Sentrin-specific protease 1 (Homo sapiens, UniProt Q9P0U3); assay: as §1
T2 sequence (Q9P0U3 whole entry): T1 sequence (whole entry)

Row | Compound | inhibition [3] | also measured
1 | CC1(C)CC[C@]2(C(=O)O)[C@H](O)C[C@]3(C)C(=CC[C@@H]4[C@@]5(C)CC[C@H](O)C(C)(C)[C@@H]5CC[C@]43C)[C@@H]2C1 |  | IC50 [1]: 21.5 µM; IC50 [2]: 96.5 µM
2 | C=C(C)[C@@H]1CC[C@]2(C)[C@H](CC=C3[C@@H]4[C@@H](C)[C@H](C)CC[C@]4(C)CC[C@]32C)[C@@]1(C)CCC(=O)O | 5.5% | 
3 | C[C@@H]1CC[C@]2(C(=O)O)CC[C@]3(C)C(=CC[C@@H]4[C@@]5(C)C=C(O)C(=O)C(C)(C)[C@@H]5CC[C@]43C)[C@@H]2[C@]1(C)O | 6% | 
4 | C[C@@H]1CC[C@]2(C(=O)O)CC[C@]3(C)C(=CC[C@@H]4[C@@]5(C)CC[C@@H](O)[C@](C)(CO)[C@@H]5CC[C@]43C)[C@@H]2[C@]1(C)O | 19.9% | 
5 | C[C@@H]1CC[C@]2(C(=O)O)CC[C@]3(C)C(=CC[C@@H]4[C@@]5(C)CC[C@H](O)C(C)(C)[C@@H]5[C@H](O)C[C@]43C)[C@@H]2[C@]1(C)O | 3.2% | 
6 | C[C@@H]1CC[C@]2(C(=O)O)CC[C@]3(C)C(=CC[C@@H]4[C@@]5(C)CC[C@H](O)[C@@](C)(CO)[C@@H]5[C@H](O)C[C@]43C)[C@@H]2[C@]1(C)O | 0.5% | 
7 | C[C@@H]1CC[C@]2(C(=O)O)CC[C@]3(C)C(=CC[C@@H]4[C@@]5(C)C[C@@H](O)[C@@H](O)C(C)(C)[C@@H]5CC[C@]43C)[C@@H]2[C@]1(C)O | 66.6% | 
8 | C[C@@H]1CC[C@]2(C(=O)O)CC[C@]3(C)C(=CC[C@@H]4[C@@]5(C)C[C@H](O)[C@H](O)C(C)(C)[C@@H]5CC[C@]43C)[C@@H]2[C@]1(C)O | 1.7% | 
9 | C[C@@H]1CC[C@]2(C(=O)O)CC[C@]3(C)C(=CC[C@@H]4[C@@]5(C)[C@H](O)C(=O)[C@H](O)C(C)(C)[C@@H]5CC[C@]43C)[C@@H]2[C@]1(C)O | 1.9% | 
10 | C[C@@H]1CC[C@]2(C(=O)O)CC[C@]3(C)C(=CC[C@@H]4[C@@]5(C)[C@H](O)[C@@H](O)[C@H](O)C(C)(C)[C@@H]5CC[C@]43C)[C@@H]2[C@]1(C)O | 78.4% | 
11 | C[C@@H]1[C@H]2C3=CC[C@@H]4[C@@]5(C)CC[C@@H](O)C(C)(C)[C@@H]5CC[C@@]4(C)[C@]3(C)CC[C@@]2(C)[C@@H](O)C[C@H]1C(=O)O | 65.5% | 
12 | C[C@@H]1[C@H]2C3=CC[C@@H]4[C@@]5(C)CC[C@H](O)C(C)(C)[C@@H]5CC[C@@]4(C)[C@]3(C)CC[C@@]2(C)CC[C@H]1C(=O)O | 69.2% | 
13 | C[C@H]1[C@H](C)CC[C@]2(C(=O)O)CC[C@]3(C)C(=CC[C@@H]4[C@@]5(C)CC[C@@H](O)C(C)(C)[C@@H]5CC[C@]43C)[C@H]12 | 8.4% | 
14 | C[C@H]1[C@H](C)CC[C@]2(C(=O)O)CC[C@]3(C)C(=CC[C@@H]4[C@@]5(C)CC[C@H](O)C(C)(C)[C@@H]5CC[C@]43C)[C@H]12 | 87.6% | 
15 | C[C@H]1[C@H](C)CC[C@]2(C(=O)O)CC[C@]3(C)C(=CC[C@@H]4[C@@]5(C)C[C@@H](O)[C@H](O)[C@@](C)(CO)[C@@H]5CC[C@]43C)[C@H]12 | 6.6% | 
16 | C[C@H]1[C@H](C)CC[C@]2(C)CC[C@]3(C)C(=CC(=O)[C@@H]4[C@@]5(C)CC[C@@H](O)[C@](C)(C(=O)O)[C@@H]5CC[C@]43C)[C@H]12 | 8.9% | 
17 | C[C@H]1[C@H](C)CC[C@]2(C)CC[C@]3(C)C(=CC[C@@H]4[C@@]5(C)CC[C@@H](O)[C@](C)(C(=O)O)[C@@H]5CC[C@]43C)[C@H]12 | 3.9% | 
18 | C[C@H]1[C@H](C)CC[C@]2(CO)CC[C@]3(C)C(=CC[C@@H]4[C@@]5(C)CC[C@H](O)C(C)(C)[C@@H]5CC[C@]43C)[C@H]12 | 58.4% | 
19 | C[C@H]1[C@H](C)CC[C@]2(C(=O)O)CC[C@]3(C)C(=CC[C@@H]4[C@@]5(C)C[C@@H](O)[C@H](O)C(C)(C)[C@@H]5CC[C@]43C)[C@H]12 [COROSOLIC ACID] | 34.4% | IC50 [1]: 26.4 µM; Activity [4]: Active; IC50 [2]: 10.5 µM
20 | C[C@@H]1CC[C@]2(C(=O)O)CC[C@]3(C)C(=CC[C@@H]4[C@@]5(C)CC[C@H](O)C(C)(C)[C@@H]5CC[C@]43C)[C@@H]2[C@]1(C)O [POMOLIC ACID] | > 100% | inhibition [5]: Active; CI [6]: 0.23; IC50 [1]: 3.69 µM; viability at 500 µM [7]: > 25%; inhibition [8]: Dde; IC50 [9]: 5.1 µM; IC50 [2]: 51.6 µM
21 | C[C@@H]1CC[C@]2(C(=O)O)CC[C@]3(C)C(=CC[C@@H]4[C@@]5(C)C[C@@H](O)[C@H](O)C(C)(C)[C@@H]5CC[C@]43C)[C@@H]2[C@]1(C)O [TOMENTIC ACID] | > 100% | inhibition [5]: Active; CI [6]: 0.3; IC50 [1]: 2.4 µM; viability at 500 µM [7]: > 25%; inhibition [8]: Dde; IC50 [9]: 4.3 µM; IC50 [2]: 23.2 µM
